One data set deals with rat gastric mucosa. Particulars: male, Wistar, in vivo, po, 4 days. The method, then:
The animals entered in the trial, randomized and divided into groups of 6 rats each, were fasted for 16 h prior to treatment, with access to water ad libitum. They were re-fed 1 h after drug administration. The compound 2-methoxyphenyl-1-methyl-5p-methylbenzoyl-pyrrol-2-acetamido acetate and the other reference NSAIDs, suspended in 1% carboxymethylcellulose (CMC) solution, were orally administered by gastric gavage in a volume of 6ml/kg for four consecutive days. Controls received the vehicle in the same way as the treated animals. 4 h after the last administration the animals were killed by ether overdose; the stomachs were removed, rinsed with 10 ml of saline and immersed in 1% formalin. They were later opened along the greater curvature and the mucosa examined for lesions.
The seriousness of the lesion was quantified according to a scale graduated from 1 to 3 according to the size of the lesions: 1= ulcer < 1mm; 2= ulcer 1-2mm; 3= ulcer > 2mm. The total sum was divided by 10 to obtain the "erosion index". The gastric lesions were evaluated by two independent investigators under blind conditions according to Main & Whittle method (BJ Pharmac 1975:53; p. 217-224).
Since the average daily dose in man (for the anti-inflammatory activity) is 600 mg, the comparative efficacious dose in the rat is in the ratio of 12:1. More precisely, comparative evaluation with the other NSAID compounds was calculated as follows: 600 mg/die: 50 mg/kg = daily dose of reference NSAID in man: X [formula] where X represents the daily dose of the reference NSAID in rat. This criterion keeps into account the "real" activity ratio in man. In this work the "ratio to rat dosage" has also been included which keeps into account ratios homogeneous to the same animal species. To evaluate the "ratio to rat dosage" the ID50 has been determined using the carrageenin-induced oedema as inflammatory test.
In order to exacerbate possible side effects on the stomach the dosage of amtolmetin guacyl was quadruplicated.

A further data set concerns human lymphocites. As to the kind of experiment: Chromosome aberrations in lymphocytes cultivated in vitro. The data set is classed as cell-based.

Consider `COc1ccccc1OC(=O)CNC(=O)Cc1ccc(C(=O)c2ccc(C)cc2)n1C` [amtolmetin guacyl, 2-methoxyphenyl-1-methyl-5p-methylbenzoylpyrrol-2-acetamido acetate], for which the Gastrolesive index in the data set with rat gastric mucosa turned out to be 1.0. In the data set on human lymphocites, the chromosomic aberrations entry is recorded as “absence of amtolmetin guacyl-related damage”.

Source of the values: patent EP1310250A1, “Use of the compound 2-methoxyphenyl-1-methyl-5P-methylbenzoyl-pyrrol-2-acetamido acetate for the production of an antiinflammatory drug with prevention of gastric hypersecretion and renal impairment” (MEDOSAN Ricerca S.r.l., priority 1997, dated 1999).
